{"source": "patent US20200038418A1", "about": "“METHODS OF TREATING AUTISM SPECTRUM DISORDER USING AMINOSTEROL COMPOSITIONS” (Enterin, Inc., priority 2018, published 2020)", "key": {"Solubility in water": {"assay": "Solubility in water", "type": "physicochemical", "conditions": "pH<3.5 (the pH of gastric fluid)"}, "αS": {"target": "αS (Homo sapiens, UniProt P37840)", "conditions": "in vitro; cited from earlier work"}, "[1]": {"test_system": "patients with PD and constipation", "assay": "Circadian rhythm of wrist skin temperature", "type": "in vivo, human", "experimental": "(6) I-Button Temperature Assessment. The I-Button is a small, rugged self-sufficient system that measures temperature and records the results in a protected memory section. The Thermochron I-Button DS1921H (Maxim Integrated, Dallas, Tex.) was used for skin temperature measurement. I-Buttons were programmed to sample every 10 mins., and attached to a double-sided cotton sport wrist band using Velcro, with the sensor face of the I-Button placed over the inside of the wrist, on the radial artery of the dominant hand. Subjects removed and replaced the data logger when necessary (i.e., to have a bath or shower). The value of skin temperature assessment in sleep research is that the endogenous skin warming resulting from increased skin blood flow is functionally linked to sleep propensity. From the collected data, the mesor, amplitude, acrophase (time of peak temperature), Rayleight test (an index of interdaily stability), mean waveforms are calculated);\nAssessments were made at baseline and at the end of the fixed dose and washout periods. Circadian system status was evaluated by continuously monitoring wrist skin temperature (Thermochron iButton DS1921H; Maxim, Dallas) following published procedures (Sarabia et al. 2008).\nCircadian rhythm of skin temperature was evaluable in 12 patients (i.e., those who had recordings that extended from baseline through washout). Circadian system functionality was evaluated by continuously monitoring wrist skin temperature using a temperature sensor (Thermochron iButton DS1921H; Maxim, Dallas, Tex.) (Sarabia et al. 2008). A nonparametric analysis was performed for each participant to characterize DST as previously described (Sarabia et al. 2008; Ortiz-Tudela et al. 2010).\nBriefly, this analysis includes the following parameters: (i) the inter-daily stability (the constancy of 24-hour rhythmic pattern over days, IS); (ii) intra-daily variability (rhythm fragmentation, IV); (iii) average of 10-minute intervals for the 10 hours with the minimum temperature (L10); (iv) average of 10-minute intervals for the 5 hours with the maximum temperature (M5) and the relative amplitude (RA), which was determined by the difference between M5 and L10, divided by the sum of both. Finally, the Circadian Function Index (CFI) was calculated by integrating IS, IV, and RA. Consequently, CFI is a global measure that oscillates between 0 for the absence of circadian rhythmicity and 1 for a robust circadian rhythm (Ortiz-Tudela et al., 2010)."}, "[2]": {"assay": "Phase 2 trial Stage 1, adverse events", "type": "in vivo, human", "conditions": "Stage 1 (10 dosed), single oral doses", "source_text": "Tolerability limits included diarrhea or vomiting."}, "[3]": {"test_system": "patients with PD and constipation", "assay": "Stage 2 bowel function, stool related indices", "type": "in vivo, human", "conditions": "Stage 2, fixed dose, n = 34", "experimental": "Following successful screening, all subjects underwent a 14-day run-in period where the degree of constipation was assessed through a validated daily log (Zinsmeister et al., 2013) establishing baseline CSBMs/week. Subjects with an average of <3 CSBMs/week proceeded to dosing.\nIn Stage 2, 34 patients were evaluated.\nThe primary efficacy outcome variable was whether or not a subject was a “success” or “failure.” This is an endpoint based on subject diary entries for the “fixed dose” period prior to the endpoint assessment defined as average complete stool frequency increase by 1 or more over baseline, or 3 or more complete spontaneous stools/week. The subject was deemed a “success” if s/he met one or more of the criteria listed above, otherwise the subject was deemed a “failure.” The primary analysis was based on all subjects with a baseline assessment and an assessment at the end of the “fixed-dose” period and was a comparison of the proportion of successes with 0.10 (the null hypothesis corresponding to no treatment effect)."}, "[4]": {"conditions": "fixed dose vs baseline, 12 patients"}}, "note": "Values joined by “and” are separate entries in the source; they are usually repeats but may differ in a detail not shown here. Identical values can stand only once.", "data": [{"molecule": "CC(C)[C@@H](CC[C@@H](C)[C@H]1CC[C@H]2[C@@H]3[C@H](O)C[C@H]4C[C@@H](NCCCNCCCCN)CC[C@]4(C)[C@H]3CC[C@]12C)OS(=O)(=O)O", "note": "(single isomer, unassigned) [squalamine (ENT-01), squalamine]", "values": [{"measurement": "dissolution", "setting": "Solubility in water", "value": "readily dissolves"}, {"measurement": "formation of aggregates of αS", "setting": "αS", "value": "inhibit the formation of aggregates of αS"}, {"measurement": "circadian function index (CFI)", "setting": "[1]; [4]", "value": "increasing"}, {"measurement": "relative amplitude (RA)", "setting": "[1]; [4]", "value": "increasing"}, {"measurement": "rhythm fragmentation (intra-daily variability, IV)", "setting": "[1]; [4]", "value": "reducing"}, {"measurement": "rhythm stability (inter-daily stability, IS)", "setting": "[1]; [4]", "value": "increasing"}, {"measurement": "impact on the circadian rhythm of skin temperature", "setting": "[1]; oral administration, 12 patients with evaluable data", "value": "significant positive impact"}, {"measurement": "circadian function index (CFI)", "setting": "[1]; wash-out period, 12 patients", "value": "improvement persisted"}, {"measurement": "rhythm stability (IS)", "setting": "[1]; wash-out period, 12 patients", "value": "improvement persisted"}, {"measurement": "Abdominal pain, Mild", "setting": "[2]", "value": "2(20) n, %"}, {"measurement": "Abdominal pain, Moderate", "setting": "[2]", "value": "3(30) n, %"}, {"measurement": "Blood in urine, Moderate", "setting": "[2]", "value": "0 n, %"}, {"measurement": "Diarrhea, Mild", "setting": "[2]", "value": "1(10) n, %"}, {"measurement": "Diarrhea, Moderate", "setting": "[2]", "value": "3(30) n, %"}, {"measurement": "Diarrhea, Severe", "setting": "[2]", "value": "0 n, %"}, {"measurement": "Difficulty falling asleep, Mild", "setting": "[2]", "value": "0 n, %"}, {"measurement": "Difficulty falling asleep, Moderate", "setting": "[2]", "value": "0 n, %"}, {"measurement": "Dizziness, Mild", "setting": "[2]", "value": "0 n, %"}, {"measurement": "Dizziness, Moderate", "setting": "[2]", "value": "0 n, %"}, {"measurement": "Eye infection, Mild", "setting": "[2]", "value": "0 n, %"}, {"measurement": "Eye infection, Moderate", "setting": "[2]", "value": "0 n, %"}, {"measurement": "Flatulence, Mild", "setting": "[2]", "value": "2(20) n, %"}, {"measurement": "Flatulence, Moderate", "setting": "[2]", "value": "0 n, %"}, {"measurement": "Headache, Mild", "setting": "[2]", "value": "1(10) n, %"}, {"measurement": "Headache, Moderate", "setting": "[2]", "value": "0 n, %"}, {"measurement": "Increased urinary frequency, Mild", "setting": "[2]", "value": "0 n, %"}, {"measurement": "Increased urinary frequency, Moderate", "setting": "[2]", "value": "0 n, %"}, {"measurement": "Loss of appetite, Moderate", "setting": "[2]", "value": "0 n, %"}, {"measurement": "Lower GI bleed, Severe", "setting": "[2]", "value": "0 n, %"}, {"measurement": "Nausea, Mild", "setting": "[2]", "value": "4(40) n, %"}, {"measurement": "Nausea, Moderate", "setting": "[2]", "value": "0 n, %"}, {"measurement": "Skin lesions-rash, Mild", "setting": "[2]", "value": "0 n, %"}, {"measurement": "Skin lesions-rash, Moderate", "setting": "[2]", "value": "0 n, %"}, {"measurement": "Urinary retention, Mild", "setting": "[2]", "value": "0 n, %"}, {"measurement": "Urinary retention, Moderate", "setting": "[2]", "value": "0 n, %"}, {"measurement": "Urinary tract infection, Mild", "setting": "[2]", "value": "0 n, %"}, {"measurement": "Urinary tract infection, Moderate", "setting": "[2]", "value": "0 n, %"}, {"measurement": "Vomiting, Mild", "setting": "[2]", "value": "1(10) n, %"}, {"measurement": "Vomiting, Moderate", "setting": "[2]", "value": "0 n, %"}, {"measurement": "Worsening acid reflux, Mild", "setting": "[2]", "value": "0 n, %"}, {"measurement": "Worsening acid reflux, Moderate", "setting": "[2]", "value": "0 n, %"}, {"measurement": "Worsening hemorrhoid, Mild", "setting": "[2]", "value": "0 n, %"}, {"measurement": "Worsening hemorrhoid, Moderate", "setting": "[2]", "value": "0 n, %"}, {"measurement": "Blood in urine, Mild", "setting": "[2]; unrelated to ENT-01", "value": "1(10) n, %"}, {"measurement": "Loss of appetite, Mild", "setting": "[2]; unrelated to ENT-01", "value": "1(10) n, %"}, {"measurement": "CSBM, weekly average (mean, SD)", "setting": "[3]", "value": "3.8 CSBM/week and 3.8 (2.40) CSBM/week"}, {"measurement": "PAC-SYM (mean, SD)", "setting": "[3]", "value": "1.1 (0.49)"}, {"measurement": "Suppository use / rescue medication, weekly average (mean, SD)", "setting": "[3]", "value": "0.3 /week"}, {"measurement": "Consistency, Bristol stool scale 1-7 (mean, SD)", "setting": "[3]; listed as aminosterol", "value": 4.1}, {"measurement": "Ease of passage, Ease of evacuation scale (mean, SD)", "setting": "[3]; listed as aminosterol", "value": 3.7}]}]}
